The target of test [1] is T1, rat adrenergic α1A receptor (Rattus norvegicus, UniProt P43140).
T1 construct: rat adrenergic α1A receptor obtained from Wistar Rat submaxillary glands; from tissue; host or cells: Wistar rat submaxillary glands
T1 sequence (P43140 1-466): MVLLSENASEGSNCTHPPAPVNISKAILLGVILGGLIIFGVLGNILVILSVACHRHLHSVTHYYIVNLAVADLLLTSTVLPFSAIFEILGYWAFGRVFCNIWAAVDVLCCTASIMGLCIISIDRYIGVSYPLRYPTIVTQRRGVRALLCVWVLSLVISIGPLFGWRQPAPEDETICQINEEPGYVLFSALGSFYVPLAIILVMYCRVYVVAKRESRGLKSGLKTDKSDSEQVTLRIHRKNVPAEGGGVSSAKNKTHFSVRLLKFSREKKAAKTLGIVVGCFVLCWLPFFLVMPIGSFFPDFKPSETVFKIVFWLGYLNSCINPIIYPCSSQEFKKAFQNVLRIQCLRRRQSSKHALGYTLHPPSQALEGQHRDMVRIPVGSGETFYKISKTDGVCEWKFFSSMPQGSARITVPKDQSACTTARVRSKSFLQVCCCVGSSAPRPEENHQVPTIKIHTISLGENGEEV
The experiment in a line: Adrenergic α1A radioligand binding ([3H]Prazosin). The conditions noted are these: read-out: Adrenergic (0.1 μM) a1A, percent inhibition of specific binding; compound at 0.1 μM; 0.25 nM [3H]Prazosin. Put shortly: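 Wistar rat submaxillary gland receptor in 50 mM Tris-HCl pH 7.4 with 0.5 mM EDTA, incubated with compound and 0.25 nM [3H]Prazosin for 60 min at 25 °C.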

The target of test [2] is T2, human recombinant adrenergic α2C receptor (Homo sapiens, UniProt P18825).
T2 construct: expressed in transfected cells; host or cells: insect Sf9 cells
T2 sequence (P18825 1-462): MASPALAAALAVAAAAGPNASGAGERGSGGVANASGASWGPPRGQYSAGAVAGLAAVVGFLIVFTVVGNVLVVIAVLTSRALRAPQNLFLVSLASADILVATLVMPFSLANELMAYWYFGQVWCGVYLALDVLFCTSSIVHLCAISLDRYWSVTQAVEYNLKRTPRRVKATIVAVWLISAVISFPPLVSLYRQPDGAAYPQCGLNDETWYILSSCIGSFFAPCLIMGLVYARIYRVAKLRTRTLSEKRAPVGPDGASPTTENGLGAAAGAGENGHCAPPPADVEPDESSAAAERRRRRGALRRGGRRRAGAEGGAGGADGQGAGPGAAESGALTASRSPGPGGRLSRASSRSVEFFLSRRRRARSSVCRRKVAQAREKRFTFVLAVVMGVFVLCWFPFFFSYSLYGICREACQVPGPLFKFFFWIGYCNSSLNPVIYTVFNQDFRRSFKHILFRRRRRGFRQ
Nature of the test: Adrenergic α2C radioligand binding ([3H]MK-912). Conditions: read-out: Adrenergic (0.1 μM) a2C, percent inhibition of specific binding; compound at 0.1 μM; 1 nM [3H]MK-912. Put shortly:
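Membranes from Sf9 cells expressing the human receptor, in 50 mM Tris-HCl pH 7.4 with 12.5 mM MgCl2 and 2 mM EDTA, incubated with compound and 1 nM [3H]MK-912 for 60 min at 25 °C. Non-specific binding defined with 10 μM WB-4101. Filter-bound radioactivity counted; percent inhibition of specific binding reported.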

The target of test [3] is T3, human recombinant dopamine D2L receptor (Homo sapiens, UniProt P14416).
T3 construct: expressed in transfected cells; host or cells: CHO
T3 sequence (P14416 whole entry): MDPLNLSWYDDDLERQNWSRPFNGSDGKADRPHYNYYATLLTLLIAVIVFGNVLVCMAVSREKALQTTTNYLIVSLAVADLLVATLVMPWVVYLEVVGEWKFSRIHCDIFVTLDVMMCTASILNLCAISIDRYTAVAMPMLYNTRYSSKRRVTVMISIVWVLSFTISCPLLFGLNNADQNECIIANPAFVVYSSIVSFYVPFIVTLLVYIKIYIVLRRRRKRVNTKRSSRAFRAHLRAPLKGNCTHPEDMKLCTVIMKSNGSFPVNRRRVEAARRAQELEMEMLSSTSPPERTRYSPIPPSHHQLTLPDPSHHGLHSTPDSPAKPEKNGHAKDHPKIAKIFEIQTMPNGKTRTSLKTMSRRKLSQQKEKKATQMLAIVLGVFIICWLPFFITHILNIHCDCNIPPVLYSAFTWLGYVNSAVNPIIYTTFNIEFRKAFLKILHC
Nature of the test: Dopamine D2L radioligand binding ([3H]Spiperone). The conditions noted are these: read-out: Dopamine D2L (1 μM), percent inhibition of specific binding; compound at 1 μM; 0.16 nM [3H]Spiperone. As to the method:
Non-specific binding was estimated in the presence of 10 μM Haloperidol. Receptor proteins were filtered and washed, the filters were then counted to determine [^3H]Spiperone specifically bound.

Test [4] addresses T4, human recombinant serotonin (5-Hydroxytryptamine) 5-HT2A receptor (Homo sapiens, UniProt P28223).
T4 construct: expressed in transfected cells; host or cells: CHO-K1
The experiment in a line: Serotonin 5-HT2A radioligand binding ([3H]Ketanserin). The conditions noted are these: compound at 0.1 μM; read-out: Inhibition of ligand binding, Serotonin 5-HT2A (percent inhibition of specific binding). Here is the method: Compounds of the invention were incubated with 0.5 nM [^3H]Ketanserin for 60 min at 25° C. Non-specific binding was estimated in the presence of 1 μM Mianserin. Receptor proteins were filtered and washed, the filters were then counted to determine [^3H]Ketanserin specifically bound.

Test [5] deals with T5, human recombinant serotonin (5-Hydroxytryptamine) 5-HT5A receptor (Homo sapiens, UniProt P47898).
T5 construct: expressed in transfected cells; host or cells: CHO-K1
T5 sequence (P47898 whole entry): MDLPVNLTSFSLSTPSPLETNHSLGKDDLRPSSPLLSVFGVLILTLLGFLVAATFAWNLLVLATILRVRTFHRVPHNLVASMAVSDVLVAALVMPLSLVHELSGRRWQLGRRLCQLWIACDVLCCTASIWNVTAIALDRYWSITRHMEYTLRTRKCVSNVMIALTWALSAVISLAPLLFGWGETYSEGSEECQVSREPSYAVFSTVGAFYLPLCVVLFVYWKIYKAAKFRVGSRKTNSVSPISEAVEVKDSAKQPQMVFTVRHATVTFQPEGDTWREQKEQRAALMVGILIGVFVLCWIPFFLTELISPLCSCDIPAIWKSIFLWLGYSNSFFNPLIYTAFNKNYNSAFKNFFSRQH
Nature of the test: Serotonin 5-HT5A radioligand binding ([3H]LSD). The conditions noted are these: compound at 0.1 μM; read-out: Inhibition of ligand binding, Serotonin 5-HT5A (percent inhibition of specific binding). Here is the method:
Compounds of the invention were incubated with 1.7 nM [^3H]Lysergic acid diethylamide (LSD) for 60 min at 37° C. […] Receptor proteins were filtered and washed, the filters were counted to determine [^3H]LSD specifically bound.

The target of test [6] is T6, human recombinant serotonin (5-Hydroxytryptamine) 5-HT6 receptor (Homo sapiens, UniProt P50406).
T6 construct: expressed in transfected cells; host or cells: HeLa
T6 sequence (P50406 whole entry): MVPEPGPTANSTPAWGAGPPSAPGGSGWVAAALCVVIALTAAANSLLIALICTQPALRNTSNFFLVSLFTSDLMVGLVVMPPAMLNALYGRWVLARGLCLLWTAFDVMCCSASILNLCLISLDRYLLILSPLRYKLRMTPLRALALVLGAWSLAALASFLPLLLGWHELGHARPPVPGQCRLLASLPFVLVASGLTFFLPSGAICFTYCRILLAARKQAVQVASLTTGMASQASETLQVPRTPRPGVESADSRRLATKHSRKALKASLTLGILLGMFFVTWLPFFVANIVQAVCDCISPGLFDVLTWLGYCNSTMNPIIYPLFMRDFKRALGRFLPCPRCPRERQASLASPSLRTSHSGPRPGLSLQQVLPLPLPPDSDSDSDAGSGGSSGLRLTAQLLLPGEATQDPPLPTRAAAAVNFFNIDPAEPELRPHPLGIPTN
The experiment in a line: Serotonin 5-HT6 radioligand binding ([3H]LSD). The conditions noted are these: compound at 0.1 μM; read-out: Inhibition of ligand binding, Serotonin 5-HT6 (percent inhibition of specific binding). From the text:
Receptor proteins were filtered and washed, the filters were then counted to determine [3H]LSD specifically bound.

Test [7] deals with T7, human recombinant serotonin (5-Hydroxytryptamine) 5-HT7 receptor (Homo sapiens, UniProt P34969).
T7 construct: expressed in transfected cells; host or cells: CHO
T7 sequence (P34969 whole entry): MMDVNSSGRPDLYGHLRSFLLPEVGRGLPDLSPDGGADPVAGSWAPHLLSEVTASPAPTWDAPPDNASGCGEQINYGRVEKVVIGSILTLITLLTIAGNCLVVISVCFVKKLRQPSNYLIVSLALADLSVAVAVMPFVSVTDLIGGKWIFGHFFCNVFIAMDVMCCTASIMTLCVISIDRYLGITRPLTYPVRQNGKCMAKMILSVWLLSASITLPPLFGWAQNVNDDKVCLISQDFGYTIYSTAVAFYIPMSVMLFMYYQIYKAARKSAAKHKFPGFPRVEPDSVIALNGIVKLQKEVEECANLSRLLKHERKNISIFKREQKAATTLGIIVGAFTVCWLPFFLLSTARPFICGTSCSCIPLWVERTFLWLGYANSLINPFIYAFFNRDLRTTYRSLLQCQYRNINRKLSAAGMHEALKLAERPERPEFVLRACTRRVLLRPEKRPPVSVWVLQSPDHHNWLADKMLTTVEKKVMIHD
Nature of the test: Serotonin 5-HT7 radioligand binding ([3H]LSD). Conditions: compound at 0.1 μM; read-out: Inhibition of ligand binding, Serotonin 5-HT7 (percent inhibition of specific binding). As to the method: Lysergic acid diethylamide (LSD) for 120 min. at 25° C. […] Receptor proteins were filtered and washed, the filters were then counted to determine [^3H]LSD specifically bound.

For eleven compounds, inhibition results are on record in patent publication US9187471B2, “Pyrido [4,3-b] indole and pyrido [3,4-b] indole derivatives and methods of use” (Medivation Technologies, Inc., priority 2010, dated 2015).

T4 sequence (P28223 whole entry): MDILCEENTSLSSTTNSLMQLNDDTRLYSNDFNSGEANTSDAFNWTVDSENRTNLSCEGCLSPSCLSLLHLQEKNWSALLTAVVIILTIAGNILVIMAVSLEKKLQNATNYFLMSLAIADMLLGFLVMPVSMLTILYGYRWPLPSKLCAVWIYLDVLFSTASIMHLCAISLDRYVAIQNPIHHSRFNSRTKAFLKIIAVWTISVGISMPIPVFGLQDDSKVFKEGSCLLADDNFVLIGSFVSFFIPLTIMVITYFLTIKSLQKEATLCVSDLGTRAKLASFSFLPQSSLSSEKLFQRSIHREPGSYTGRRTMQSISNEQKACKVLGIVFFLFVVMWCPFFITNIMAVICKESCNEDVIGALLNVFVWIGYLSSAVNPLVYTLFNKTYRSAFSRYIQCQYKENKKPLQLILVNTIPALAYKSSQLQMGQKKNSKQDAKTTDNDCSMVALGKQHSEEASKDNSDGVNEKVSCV

What is called inhibition is the drop in the measured response relative to a control, in per cent. For `Cc1ccc2c(c1)c1c(n2-c2ccc(-c3c(C)noc3C)cn2)CCN(C)C1` [Compound No. 137, 4-(6-(2,8-dimethyl-3,4-dihydro-1H-pyrido[4,3-b]indol-5(2H)-yl)pyridin-3-yl)-3,5-dimethylisoxazole], the inhibition at 0.1 µM in test [1] was 17%; in test [2], -1%; in test [4] it was 62%; in test [5] it was 31%; in test [6], 2%; in test [7], 40%. In addition, the inhibition at 1 µM in test [3] worked out at 6%.
As for `Cc1ccc2c(c1)c1c(n2-c2ccc(-c3cnc(N(C)C)nc3)cn2)CCN(C)C1` [Compound No. 138, 5-(6-(2,8-dimethyl-3,4-dihydro-1H-pyrido[4,3-b]indol-5(2H)-yl)pyridin-3-yl)-N,N-dimethylpyrimidin-2-amine], the inhibition at 0.1 µM in test [1] is 32%; in test [2], -2%; in test [4], 83%; in test [5] it was 13%; in test [6] it was -6%; in test [7] it was 6%. Further, the inhibition at 1 µM in test [3] is -2%.
As for `CC(=O)Nc1ccc(-c2ccc(-n3c4c(c5cc(C)ccc53)CN(C)CC4)nc2)cn1` [Compound No. 139, N-(6′-(2,8-dimethyl-3,4-dihydro-1H-pyrido[4,3-b]indol-5(2H)-yl)-3,3′-bipyridin-6-yl)acetamide], the inhibition at 0.1 µM was 22% in test [1]; 2% in test [2]; 64% in test [4]; -4% in test [5]; -1% in test [6]; 13% in test [7]. The inhibition at 1 µM in test [3] was 16%.
For the compound `Cc1ccc2c(c1)c1c(n2-c2ccc(-c3ccc(F)cc3)cn2)CCN(C)C1` [Compound No. 140, 5-(5-(4-fluorophenyl)pyridin-2-yl)-2,8-dimethyl-2,3,4,5-tetrahydro-1H-pyrido[4,3-b]indole], the inhibition at 0.1 µM in test [1] was 31%; in test [2] it was 53%; in test [4], 104%; in test [5], 52%; in test [6], 41%; in test [7] it was 41%. For the same compound, in test [3], the inhibition at 1 µM is -4%.
Turning to `Cc1ccc2c(c1)c1c(n2-c2ccc(-c3cccc4ccccc34)cn2)CCN(C)C1` [Compound No. 141, 2,8-dimethyl-5-(5-(naphthalen-1-yl)pyridin-2-yl)-2,3,4,5-tetrahydro-1H-pyrido[4,3-b]indole], the inhibition at 0.1 µM in test [1] amounted to 33%; in test [2], 16%; in test [4], 61%; in test [5] it was 87%; in test [6], 0%; in test [7], 33%. Also, the inhibition at 1 µM in test [3] is 15%.
With `Cc1ccc2c(c1)c1c(n2-c2ccc(-c3ccc(F)nc3)cn2)CCN(C)C1` [Compound No. 142, 5-(6′-fluoro-3,3′-bipyridin-6-yl)-2,8-dimethyl-2,3,4,5-tetrahydro-1H-pyrido[4,3-b]indole], the inhibition at 0.1 µM in test [1] is 46%; in test [2], 5%; in test [4], 103%; in test [5] it was 23%; in test [6] it was -12%; in test [7] it was 22%. Moreover, the inhibition at 1 µM in test [3] was found to be 13%.
On to `CNC(=O)c1cccc(-c2ccc(-n3c4c(c5cc(C)ccc53)CN(C)CC4)nc2)c1` [Compound No. 143, 3-(6-(2,8-dimethyl-3,4-dihydro-1H-pyrido[4,3-b]indol-5(2H)-yl)pyridin-3-yl)-N-methylbenzamide], for which the inhibition at 0.1 µM is 32% in test [1]; 8% in test [2]; 55% in test [4]; 17% in test [5]; -8% in test [6]; 11% in test [7]. Further, in test [3], the inhibition at 1 µM is 19%.
Take `Cc1csc(-c2ccc(-n3c4c(c5cc(C)ccc53)CN(C)CC4)nc2)c1` [Compound No. 144, 2,8-dimethyl-5-(5-(4-methylthiophen-2-yl)pyridin-2-yl)-2,3,4,5-tetrahydro-1H-pyrido[4,3-b]indole]: the inhibition at 0.1 µM in test [1] stood at 27%; in test [2] it was 49%; in test [4], 103%; in test [5], 38%; in test [6], 13%; in test [7], 37%. In test [3], the inhibition at 1 µM was 5%.
For `Cc1ccc2c(c1)c1c(n2-c2ccc(-c3ccc(S(N)(=O)=O)cc3)cn2)CCN(C)C1` [Compound No. 145, 4-(6-(2,8-dimethyl-3,4-dihydro-1H-pyrido[4,3-b]indol-5(2H)-yl)pyridin-3-yl)benzenesulfonamide], the inhibition at 0.1 µM was 44% in test [1]; 6% in test [2]; 82% in test [4]; 15% in test [5]; -11% in test [6]; 32% in test [7]. For the same compound, in test [3], the inhibition at 1 µM came to 8%.
As for `Cc1ccc2c(c1)c1c(n2-c2ccc(-c3ccnn3C)cn2)CCN(C)C1` [Compound No. 146, 2,8-dimethyl-5-(5-(1-methyl-1H-pyrazol-5-yl)pyridin-2-yl)-2,3,4,5-tetrahydro-1H-pyrido[4,3-b]indole], the inhibition at 0.1 µM in test [1] is 33%; in test [2], -1%; in test [4], 57%; in test [5] it was 10%; in test [6], -17%; in test [7] it was 16%. Besides, the inhibition at 1 µM in test [3] was determined as 5%.
As to `Cc1ccc2c(c1)c1c(n2-c2ccc(-c3cccc4[nH]ncc34)cn2)CCN(C)C1` [Compound No. 147, 5-(5-(1H-indazol-4-yl)pyridin-2-yl)-2,8-dimethyl-2,3,4,5-tetrahydro-1H-pyrido[4,3-b]indole], the inhibition at 0.1 µM was found to be 37% in test [1]; 1% in test [2]; 62% in test [4]; 23% in test [5]; 15% in test [6]; 14% in test [7]. The inhibition at 1 µM in test [3] is 33%.
